As usually defined, the EC50 is the concentration at which the effect is half-maximal.

The target of the first assay is T1, ΔF508-CFTR (Homo sapiens, UniProt P13569, DEL508-508).
T1 construct: expressed in transfected cells
T1 sequence (P13569 with tags, fused parts or gaps DEL508-508): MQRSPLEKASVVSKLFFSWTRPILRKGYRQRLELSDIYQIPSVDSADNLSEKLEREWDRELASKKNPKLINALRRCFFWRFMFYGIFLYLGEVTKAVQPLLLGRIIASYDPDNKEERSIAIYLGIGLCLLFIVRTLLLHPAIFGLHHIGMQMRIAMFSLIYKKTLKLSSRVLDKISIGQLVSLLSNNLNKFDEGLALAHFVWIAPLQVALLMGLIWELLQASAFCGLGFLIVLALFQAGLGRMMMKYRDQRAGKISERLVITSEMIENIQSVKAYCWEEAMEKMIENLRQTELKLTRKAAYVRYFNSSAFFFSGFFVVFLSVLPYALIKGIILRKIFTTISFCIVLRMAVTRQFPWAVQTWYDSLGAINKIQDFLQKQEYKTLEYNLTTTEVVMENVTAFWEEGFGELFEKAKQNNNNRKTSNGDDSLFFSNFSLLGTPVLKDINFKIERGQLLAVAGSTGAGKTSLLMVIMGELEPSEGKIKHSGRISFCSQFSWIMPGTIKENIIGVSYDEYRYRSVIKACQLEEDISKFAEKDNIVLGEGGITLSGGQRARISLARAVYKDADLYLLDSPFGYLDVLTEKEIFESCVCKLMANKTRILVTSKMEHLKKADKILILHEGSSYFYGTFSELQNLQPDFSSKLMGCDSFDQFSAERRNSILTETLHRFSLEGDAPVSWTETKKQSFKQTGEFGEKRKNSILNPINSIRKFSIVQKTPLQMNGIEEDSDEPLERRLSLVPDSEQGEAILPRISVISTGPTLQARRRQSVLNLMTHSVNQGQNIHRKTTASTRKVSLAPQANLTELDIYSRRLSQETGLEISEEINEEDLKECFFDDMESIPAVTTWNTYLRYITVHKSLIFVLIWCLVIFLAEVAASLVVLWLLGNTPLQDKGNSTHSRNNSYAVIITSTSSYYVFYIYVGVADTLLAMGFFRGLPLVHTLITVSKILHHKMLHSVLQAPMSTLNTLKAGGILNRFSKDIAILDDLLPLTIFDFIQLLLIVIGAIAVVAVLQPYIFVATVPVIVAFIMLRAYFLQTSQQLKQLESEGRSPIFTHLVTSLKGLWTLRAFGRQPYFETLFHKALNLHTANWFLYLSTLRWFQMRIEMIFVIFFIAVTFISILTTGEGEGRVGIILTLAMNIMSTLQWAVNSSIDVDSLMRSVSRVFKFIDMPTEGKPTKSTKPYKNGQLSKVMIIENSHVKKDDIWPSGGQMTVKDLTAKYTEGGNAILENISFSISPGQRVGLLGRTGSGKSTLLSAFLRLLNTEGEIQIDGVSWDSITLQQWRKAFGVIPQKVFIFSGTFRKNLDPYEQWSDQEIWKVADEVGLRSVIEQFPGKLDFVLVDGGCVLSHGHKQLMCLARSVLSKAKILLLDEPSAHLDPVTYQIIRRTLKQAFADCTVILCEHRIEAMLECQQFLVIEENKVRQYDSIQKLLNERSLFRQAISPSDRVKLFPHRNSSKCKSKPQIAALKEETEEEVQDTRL
The experiment in a line: Membrane potential optical assay (FRET voltage-sensor dyes, VIPR), identification of potentiator compounds. The assay is classed as cell-based. As to conditions: Table 3; assay not given. A digest of the protocol:
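Potentiator screen measured membrane potential via FRET between CC2-DMPE donor and DiSBAC2(3), read on VIPR II. Compound went in with the first addition of chloride-free gluconate bath; cells were ΔF508-CFTR-expressing NIH3T3 mouse fibroblasts, temperature-corrected at 27 °C for 24 h.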
Turning to `CCc1cccc(C(C)C)c1NC(=O)c1c[nH]c2ccccc2c1=O` [Compound 314, N-(2-ethyl-6-isopropyl-phenyl)-4-oxo-1H-quinoline-3-carboxamide], the EC50 is less than 10 µM.

Staying with this assay, now noted: Table 3; assay not given; read-out: % Activity (% Efficacy, relative efficacy).
Regarding `Cc1csc(-c2ccccc2NC(=O)c2c[nH]c3ccccc3c2=O)c1` [Compound 151, N-[2-(4-methyl-2-thienyl)phenyl]-4-oxo-1H-quinoline-3-carboxamide], the Emax lay within 25 to 100%.

Regarding `CC(C)(C)c1cc(F)c(NC(=O)c2c[nH]c3cccc(O)c3c2=O)cc1O` [Compound 407, N-(2-fluoro-5-hydroxy-4-tert-butyl-phenyl)-5-hydroxy-4-oxo-1H-quinoline-3-carboxamide], the Emax is 25 to 100%.

On to `CC(C)(C)OC(=O)[C@@H]1CCCN1c1ccc(NC(=O)c2c[nH]c3ccccc3c2=O)c(C(F)(F)F)c1` [Compound 629, (S)-tert-butyl 1-(4-(4-oxo-1,4-dihydroquinoline-3-carboxamido)-3-(trifluoromethyl)phenyl)pyrrolidine-2-carboxylate], for which the Emax was in the range of 25 to 100%.

As for `Cc1ccc2[nH]cc(C(=O)Nc3cc(O)c(C4(C)CCCCC4)cc3F)c(=O)c2c1` [Compound 624, N-[2-fluoro-5-hydroxy-4-(1-methylcyclohexyl)-phenyl]-6-methyl-4-oxo-1H-quinoline-3-carboxamide], the Emax fell in the range of 25 to 100%.

Turning to `O=C(Nc1ccc2cc[nH]c2c1)c1c[nH]c2cccc(O)c2c1=O` [Compound 116, 5-hydroxy-N-(1H-indol-6-yl)-4-oxo-1H-quinoline-3-carboxamide], the Emax fell in the range of 25 to 100%.

For the compound `CCn1cc(C(=O)Nc2ccccc2)c(=O)c2cc(OC)ccc21` [Compound 480, 1-ethyl-6-methoxy-4-oxo-N-phenyl-1H-quinoline-3-carboxamide], the Emax was less than 25%.

As for `CC1(C)CCCN(c2ccc(NC(=O)c3c[nH]c4ccccc4c3=O)c(C(F)(F)F)c2)C1` [Compound 612, N-[4-(3,3-dimethyl-1-piperidyl)-2-(trifluoromethyl)phenyl]-4-oxo-1H-quinoline-3-carboxamide], the Emax fell in the range of 25 to 100%.

Regarding `CC(C)c1ccc(NC(=O)c2c[nH]c3ccccc3c2=O)cc1N(C)C` [Compound 117, N-(3-dimethylamino-4-isopropyl-phenyl)-4-oxo-1H-quinoline-3-carboxamide], the Emax lay within 25 to 100%.

Take `CN(C)[C@@H]1CCN(c2ccc(NC(=O)c3c[nH]c4ccccc4c3=O)c(C(F)(F)F)c2)C1` [Compound 534, (R)-N-(4-(3-(dimethylamino)pyrrolidin-1-yl)-2-(trifluoromethyl)phenyl)-4-oxo-1,4-dihydroquinoline-3-carboxamide]: the Emax lay within 25 to 100%.

With `CCc1cccc(NC(=O)c2c[nH]c3ccccc3c2=O)n1` [Compound 125, N-(6-ethyl-2-pyridyl)-4-oxo-1H-quinoline-3-carboxamide], the Emax lay in the range of 25 to 100%.

Turning to `O=C(Nc1ccc2cc(C(F)(F)F)[nH]c2c1)c1c[nH]c2ccc(F)cc2c1=O` [Compound 495, 6-fluoro-4-oxo-N-[2-(trifluoromethyl)-1H-indol-6-yl]-1H-quinoline-3-carboxamide], the Emax was in the range of 25 to 100%.

Turning to `COc1ccc2[nH]cc(C(=O)Nc3cc(O)c(C4(C)CCCCC4)cc3F)c(=O)c2c1` [Compound 584, N-[2-fluoro-5-hydroxy-4-(1-methylcyclohexyl)-phenyl]-6-methoxy-4-oxo-1H-quinoline-3-carboxamide], the Emax was 25 to 100%.

Take `O=C(Nc1ccc(S(=O)(=O)N2CCOCC2)cc1)c1c[nH]c2ccccc2c1=O` [Compound 276, N-(4-morpholinosulfonylphenyl)-4-oxo-1H-quinoline-3-carboxamide]: the Emax was 25 to 100%.

In the case of `CCc1cccc(C(C)C)c1NC(=O)c1c[nH]c2ccccc2c1=O` [Compound 314, N-(2-ethyl-6-isopropyl-phenyl)-4-oxo-1H-quinoline-3-carboxamide], the Emax was 25 to 100%.

For the compound `Cc1cccc2[nH]cc(C(=O)Nc3ccc(N4CC[C@@H](F)C4)cc3C(F)(F)F)c(=O)c12` [Compound 541, (R)-N-(4-(3-fluoropyrrolidin-1-yl)-2-(trifluoromethyl)phenyl)-5-methyl-4-oxo-1,4-dihydroquinoline-3-carboxamide], the Emax was in the range of 25 to 100%.
